Laboratory results taken from patent publication US11655244B2, “Carbazole compounds and methods of use thereof” (GSNO Therapeutics, Inc, priority 2017, dated 2023).
Like-named read-outs stand apart in the source and are kept apart here.

Tests used:
GSNOR enzyme [1] = target: T1, GSNOR enzyme (Homo sapiens, UniProt P11766); test: GSNOR inhibition assay (rate of NADH consumption, 340 nm absorbance); format: biochemical
Experimental: The following compounds were also prepared based on the methods described herein, using the appropriate starting materials. Table 2a and Table 2b also provides the % GSNOR inhibition at 20 μM of compounds described herein. […] The buffer was 100 mM phosphate buffer (pH 7.4.) The rate of NADH consumption for each well was determined by ultraviolet spectroscopy. Plates were read on a Molecular Devices Spectra Max UV/Visible Spectrophotometer/plate reader and the change in 340 nm absorbance at 25° C. was recorded for each well at 10 sec intervals over the duration of the recording period (2˜5 minutes). The rate was measured from the linear portion of the curve. Final test compound concentration was 20 μM. The mean % inhibition from 3 test compound wells and 5 control wells was measured as the percentage of the mean no compound+enzyme−the mean no enzyme, no compound control.

IL-6 = test: LPS/cytokine assay (mouse inflammation assay), IL-6; format: in vivo, CD-1 male mice; conditions: CD-1 male mice; IP or IV; cytokine typically 6 hrs after LPS
Experimental: Table 2b also includes additional biological data of compounds described herein. The LPS/cytokine Assay was carried out in CD-1 male mice. The assay measured the level of various cytokines, including IL-6, IL-17, and IL-23, after induction by bacterial liposaccharide (LPS). Compounds were dosed by IP or IV routes of administration at varying times before and after LPS and the cytokine concentrations were measured at varying times, typically 6 hrs, after LPS by standard methods using ELISA kits.
BIOLOGICAL TESTING: Compounds 10 and 17 from Table 1 were tested in a mouse inflammation assay. Briefly, CD-1 mice were dosed with compound, 12 hrs before injecting mice I.P. with the potent cytokine inducer, bacterial lipopolysaccharide (LPS). The mice were euthanized 6 hrs after the LPS was injected and their serum prepared by standard methods. The concentration of IL-6 in the serum of each experimental animal was measured using an IL-6 ELISA kit from Enzo. The compounds tested were active.
This LPS/cytokine assay was carried out in healthy mice and measured the level of cytokine IL-6, IL-17, and 23 induction by LPS. Compounds are dosed (either orally (“p.o.”) or intravenously (“i.v.”) at varying times before and after LPS, and the cytokines are measured at varying times after LPS. The effect of the tested compounds (Table 5) on IL-6 release is shown in FIG. 7. The effect of the tested compounds (Table 6) on IL-17 an IL-23 release is shown in FIG. 11 and FIG. 12, respectively.

GSNOR enzyme [2] = target: T1, GSNOR enzyme; test: GSNOR inhibition assay (rate of NADH consumption, 340 nm absorbance); format: biochemical; conditions: Table 2b; read-out: IC50 Micromolar
[3] = tested on: non-alcoholic steatohepatitis (NASH) in male C57BL/6 mice; test: Non-alcoholic steatohepatitis (NASH) model, Streptozotocin plus 60% kcal fat diet; format: in vivo; conditions: for liver to body weight ratio: disease control 0.066; for decrease of percentage collagen proportion area (CPA), Masson's trichrome staining, liver: vs disease control
Experimental: Timed pregnant mice (n=44) were selected for the study. The delivered pups were subcutaneously injected on post-natal day 2 with 200 μg of Streptozotocin and were allowed to remain with the mother until they reached the weanling age. After weanling, the male pups were selected and fed with 60% kcal fat diet (Research Diet-D12492) for next 6 weeks. All the animals were observed once daily for clinical signs and twice daily for morbidity and mortality.
Mice were dosed with vehicle, Compound 17 (at 3 mg/kg or 10 mg/kg) and 10 mg/kg of reference compound (either Obeticholic acid (OCA) or Elafibranor (ELA, GFT505)) once daily before the start of dark cycle (6:00 PM) from day 0 to 21. Animal body weight measurements were made daily for the complete duration of the experiment. Animals were dosed for 21 days (from week 9 to 12) with the test and reference compounds. Blood glucose was estimated before the treatment start, day 11 and on the termination day. Histopathology analysis including the H&E staining, Masson's trichrome staining and the Oil-red-O (ORO) staining was performed for the liver tissues.

[4] = Table 2b, test compound 20 uM, read-out: % GSNOR Inhibition at 20 uM
[5] = Table 2a, test compound 20 μM, pH 7.4, 25° C., read-out: % Inhibit. at 20 μM

T1 sequence (P11766 whole entry): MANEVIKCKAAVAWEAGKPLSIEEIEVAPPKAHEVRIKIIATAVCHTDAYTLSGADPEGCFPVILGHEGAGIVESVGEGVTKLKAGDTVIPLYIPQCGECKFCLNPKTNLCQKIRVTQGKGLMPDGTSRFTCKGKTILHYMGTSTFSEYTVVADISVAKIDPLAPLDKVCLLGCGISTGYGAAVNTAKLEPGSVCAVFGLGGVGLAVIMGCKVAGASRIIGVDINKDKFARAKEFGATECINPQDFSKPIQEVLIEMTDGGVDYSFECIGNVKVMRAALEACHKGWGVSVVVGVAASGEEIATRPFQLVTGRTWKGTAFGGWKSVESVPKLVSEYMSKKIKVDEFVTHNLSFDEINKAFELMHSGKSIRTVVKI

NC(=O)c1ccc(-n2c3ccc(-n4ccnc4)cc3c3ccc(CCC(=O)O)cc32)cc1 [Compound 20]
inhibition at 20 µM (GSNOR enzyme [1]; [4]): 88.9%
LPS/IL6 Lowest tested active (IL-6): 0.3 mg/kg
IC50 (GSNOR enzyme [2]): 1000 to 5000 nM

NC(=O)c1ccc(-n2c3cc(CNc4nccs4)ccc3c3ccc(C(=O)O)cc32)c([N+](=O)[O-])c1 [Compound J1, 9-(4-carbamoyl-2-nitrophenyl)-7-((thiazol-2-ylamino)methyl)-9H-carbazole-2-carboxylic acid]
inhibition at 20 µM (GSNOR enzyme [1]; [5]): 9%

CSc1ccc(C(=O)/C=C/c2cc(C)c(OC(C)(C)C(=O)O)c(C)c2)cc1 [Elafibranor, reference compound]
NAS ([3]; 10 mg/kg): 2.67
ORO (Oil-Red-O) steatosis score relative to disease control ([3]; 10 mg/kg): −11%
change of liver to body weight ratio compared with disease control ([3]; 10 mg/kg): +40%
plasma glucose relative to disease control (in words) ([3]; 10 mg/kg once daily): neither OCA nor ELA reduced glucose
body weight, statistical significance ([3]; 10 mg/kg, day 7 and 12 post-treatment): statistically significant (*p<0.05) increase in body weight
weight put on relative to naïve controls at day 21 ([3]; 10 mg/kg): +43%
liver to body weight ratio ([3]; 10 mg/kg): 0.092
decrease of percentage collagen proportion area (CPA), Masson's trichrome staining, liver ([3]; 10 mg/kg): 54%
change in body weight (g), Mean ([3]; Day 1, 10 mg/kg once daily): 0.00 g
change in body weight (g), Mean ([3]; Day 2, 10 mg/kg once daily): 0.70 g
change in body weight (g), Mean ([3]; Day 3, 10 mg/kg once daily): 1.18 g
change in body weight (g), Mean ([3]; Day 4, 10 mg/kg once daily): 0.93 g
change in body weight (g), Mean ([3]; Day 5, 10 mg/kg once daily): 1.42 g
change in body weight (g), Mean ([3]; Day 6, 10 mg/kg once daily): 1.31 g
change in body weight (g), Mean ([3]; Day 7, 10 mg/kg once daily): 1.43 g
change in body weight (g), Mean ([3]; Day 8, 10 mg/kg once daily): 1.49 g
change in body weight (g), Mean ([3]; Day 9, 10 mg/kg once daily): 1.71 g
change in body weight (g), Mean ([3]; Day 10, 10 mg/kg once daily): 1.69 g
change in body weight (g), Mean ([3]; Day 11, 10 mg/kg once daily): 1.47 g
change in body weight (g), Mean ([3]; Day 12, 10 mg/kg once daily): -0.17 g
change in body weight (g), Mean ([3]; Day 13, 10 mg/kg once daily): 1.73 g
change in body weight (g), Mean ([3]; Day 14, 10 mg/kg once daily): 1.96 g
change in body weight (g), Mean ([3]; Day 15, 10 mg/kg once daily): 2.00 g
change in body weight (g), Mean ([3]; Day 16, 10 mg/kg once daily): 1.64 g
change in body weight (g), Mean ([3]; Day 17, 10 mg/kg once daily): 1.82 g
change in body weight (g), Mean ([3]; Day 18, 10 mg/kg once daily): 2.16 g
change in body weight (g), Mean ([3]; Day 19, 10 mg/kg once daily): 2.26 g
change in body weight (g), Mean ([3]; Day 20, 10 mg/kg once daily): 1.88 g
change in body weight (g), Mean ([3]; Day 21, 10 mg/kg once daily): 2.22 g

NC(=O)CCn1c2cc(Cn3ccnc3)ccc2c2ccc(C(=O)O)cc21 [Compound 8, 9-(3-amino-3-oxopropyl)-7-[(1H-imidazol-1-yl)methyl]-9H-carbazole-2-carboxylic acid]
inhibition at 20 µM (GSNOR enzyme [1]; [5]): 80%
inhibition at 20 µM (GSNOR enzyme [1]; [4]): 80%
IC50 (GSNOR enzyme [2]): 1000 to 5000 nM

O=C(O)CCc1ccc2c3cc(-n4ccnc4)ccc3n(-c3ccc(O)cc3)c2c1 [Compound 23]
inhibition at 20 µM (GSNOR enzyme [1]; [4]): 93.4%

N#CCCn1c2ccc(-n3ccnc3)cc2c2ccc(CCC(=O)O)cc21 [Compound 26, 3-(imidazol-1(H)-yl)-7-(2-carboxylethyl)-9(H)-(2-cyanoethyl) carbazole]
inhibition at 20 µM (GSNOR enzyme [1]; [4]): 92.4%
LPS/IL6 Lowest tested active (IL-6): 0.3 mg/kg
IC50 (GSNOR enzyme [2]): < 1000 nM

N#Cc1ccc(-n2c3cc(CNc4ncco4)ccc3c3ccc(C(=O)O)cc32)c([N+](=O)[O-])c1 [Compound H1, 9-(4-cyano-2-nitrophenyl)-7-((oxazol-2-ylamino)methyl)-9H-carbazole-2-carboxylic acid]
inhibition at 20 µM (GSNOR enzyme [1]; [5]): 0%

N#CCCCCn1c2ccc(-n3ccnc3)cc2c2ccc(CCC(=O)O)cc21 [Compound 31]
inhibition at 20 µM (GSNOR enzyme [1]; [4]): 92.9%
LPS/IL6 Lowest tested active (IL-6): 0.3 mg/kg
IC50 (GSNOR enzyme [2]): < 1000 nM

COc1ccc(-n2c3ccc(-n4ccnc4)cc3c3ccc(CCC(=O)O)cc32)cc1 [Compound 24]
inhibition at 20 µM (GSNOR enzyme [1]; [4]): 90%

N#Cc1ccc(-n2c3ccc(-n4ccnc4)cc3c3ccc(CCC(=O)O)cc32)cc1 [Compound 18]
inhibition at 20 µM (GSNOR enzyme [1]; [4]): 72.4%
IC50 (GSNOR enzyme [2]): > 5000 nM

N#Cc1ccc(-n2c3cc(CNc4nccs4)ccc3c3ccc(C(=O)O)cc32)c([N+](=O)[O-])c1 [Compound G1, 9-(4-cyano-2-nitrophenyl)-7-((thiazol-2-ylamino)methyl)-9H-carbazole-2-carboxylic acid]
inhibition at 20 µM (GSNOR enzyme [1]; [5]): 15%

Cc1cc(C(N)=O)ccc1-n1c2ccc(-n3ccnc3)cc2c2ccc(CCC(=O)O)cc21 [Compound 21]
inhibition at 20 µM (GSNOR enzyme [1]; [4]): 93.6%
LPS/IL6 Lowest tested active (IL-6): 0.3 mg/kg
IC50 (GSNOR enzyme [2]): 1000 to 5000 nM

COc1ccc(-n2c3ccc(-n4ccnc4)cc3c3ccc(CCC(=O)O)cc32)c(C)c1 [Compound 25]
inhibition at 20 µM (GSNOR enzyme [1]; [4]): 92%

O=C(O)CCc1ccc2c3cc(-n4ccnc4)ccc3n(-c3ccc(Cl)cc3)c2c1 [Compound 22]
inhibition at 20 µM (GSNOR enzyme [1]; [4]): 81.4%

CC[C@H]1[C@@H](O)[C@@H]2[C@H](CC[C@]3(C)[C@@H]([C@H](C)CCC(=O)O)CC[C@@H]23)[C@@]2(C)CC[C@@H](O)C[C@@H]12 [Obeticholic acid, reference compound]
NAS ([3]; 10 mg/kg): 3.20
ORO (Oil-Red-O) steatosis score relative to disease control ([3]; 10 mg/kg): −1%
change of liver to body weight ratio compared with disease control ([3]; 10 mg/kg): −11%
weight put on relative to naïve controls at day 21 ([3]; 10 mg/kg): +28%
liver to body weight ratio ([3]; 10 mg/kg): 0.058
decrease of percentage collagen proportion area (CPA), Masson's trichrome staining, liver ([3]; 10 mg/kg): 50%
change in body weight (g), Mean ([3]; Day 1, 10 mg/kg once daily): 0.00 g
change in body weight (g), Mean ([3]; Day 2, 10 mg/kg once daily): 0.43 g
change in body weight (g), Mean ([3]; Day 3, 10 mg/kg once daily): 0.57 g
change in body weight (g), Mean ([3]; Day 4, 10 mg/kg once daily): 0.43 g
change in body weight (g), Mean ([3]; Day 5, 10 mg/kg once daily): 0.45 g
change in body weight (g), Mean ([3]; Day 6, 10 mg/kg once daily): 0.78 g
change in body weight (g), Mean ([3]; Day 7, 10 mg/kg once daily): 0.58 g
change in body weight (g), Mean ([3]; Day 8, 10 mg/kg once daily): 0.89 g
change in body weight (g), Mean ([3]; Day 9, 10 mg/kg once daily): 0.85 g
change in body weight (g), Mean ([3]; Day 10, 10 mg/kg once daily): 1.06 g
change in body weight (g), Mean ([3]; Day 11, 10 mg/kg once daily): 0.78 g
change in body weight (g), Mean ([3]; Day 12, 10 mg/kg once daily): 0.06 g
change in body weight (g), Mean ([3]; Day 13, 10 mg/kg once daily): 0.82 g
change in body weight (g), Mean ([3]; Day 14, 10 mg/kg once daily): 1.05 g
change in body weight (g), Mean ([3]; Day 15, 10 mg/kg once daily): 0.54 g
change in body weight (g), Mean ([3]; Day 16, 10 mg/kg once daily): 0.82 g
change in body weight (g), Mean ([3]; Day 17, 10 mg/kg once daily): 1.43 g
change in body weight (g), Mean ([3]; Day 18, 10 mg/kg once daily): 1.52 g
change in body weight (g), Mean ([3]; Day 19, 10 mg/kg once daily): 1.81 g
change in body weight (g), Mean ([3]; Day 20, 10 mg/kg once daily): 1.62 g
change in body weight (g), Mean ([3]; Day 21, 10 mg/kg once daily): 1.98 g

NC(=O)c1ccc(-n2c3cc(Cn4ccnc4)ccc3c3ccc(C(=O)O)cc32)c([N+](=O)[O-])c1 [Compound 16, 9-(4-aminocarbonyl-2-nitrophenyl)-7-[(1H-imidazol-1-yl)methyl]-9H-carbazole-2-carboxylic acid]
inhibition at 20 µM (GSNOR enzyme [1]; [5]): 89%
inhibition at 20 µM (GSNOR enzyme [1]; [4]): 89%
IC50 (GSNOR enzyme [2]): 1000 to 5000 nM

NC(=O)c1ccc(-n2c3cc(CNc4ncco4)ccc3c3ccc(C(=O)O)cc32)c([N+](=O)[O-])c1 [Compound I1, 9-(4-carbamoyl-2-nitrophenyl)-7-((oxazol-2-ylamino)methyl)-9H-carbazole-2-carboxylic acid]
inhibition at 20 µM (GSNOR enzyme [1]; [5]): 0%

NC(=O)CCn1c2ccc(-n3ccnc3)cc2c2cc(F)c(C(=O)O)cc21 [Compound E1, 9-(3-amino-3-oxopropyl)-3-fluoro-6-(1H-imidazol-1-yl)-9H-carbazole-2-carboxylic acid]
inhibition at 20 µM (GSNOR enzyme [1]; [5]): 18%

Cc1cc(C#N)ccc1-n1c2ccc(-n3ccnc3)cc2c2ccc(CCC(=O)O)cc21 [Compound 19]
inhibition at 20 µM (GSNOR enzyme [1]; [4]): 81.3%
IC50 (GSNOR enzyme [2]): 1000 to 5000 nM
